Test [1] deals with staining fungi (macerated fungal blend). Put plainly: Staining fungi coverage in inoculated stem wound of red oak seedlings, greenhouse (Table 6).
Procedure: In performing the tests employing ten red oak seedlings per iteration with the materials being tested applied at approximately 12 milliliters per seeding applied with a low volume hand spray. […] Seven days after application, a sterile razor blade wound of approximately 2 millimeters by 10 millimeters was created on each seedling stem. Immediately after, the wounding 1 ml of macerated fungal blend suspended in distilled water was applied to each stem wound. Twenty-eight days after wounding, the wounds were evaluated for an average percentage of staining fungi present in each seedling stem wound. Opaque black straw covering was applied to each wound. The opaque black straws were applied within about one minute after wounding and inoculation with the fungi. […] The purpose for using such straws is to facilitate the creation of a dark environment on the wound as fungi tend to like dark damp places. This is employed to enhance the effectiveness of the test by accelerating the severity of the fungal growing conditions. Each stem wound was given two ml of distilled water 10, 17, 21 and 28 days after wounding by a low volume trigger spray. All solutions were included a propylene glycol based dye at a concentration of 100:1. The greenhouse conditions were maintained at 65° F. to 85° F. and the humidity range of 30 to 80% relative humidity. The test which employed the combination of thiabendazole, fludioxonil and azoxystrobin was obtained as a formulated pesticide product which was available under the trade designation “Sporgard”.
The final column is a numerical grade which represents the percent of staining fungi coverage in percentage in the stem wound of the red oak seedlings as measured on day 28.
Test [2] has as its system staining fungi of the ceratocystis variety. Put plainly: Staining fungi in stem wound of white oak seedlings after trunk spray (Table 4). The test is classed as in vivo, ceratocystis (on white oak seedlings). The method, then:
Fourteen days after the stem wounding, wounds were examined for the presence of staining fungi. In creating these for solution were used the buffer and amine oxides were added to the dilute solution of fungicide.
Referring to TABLE 4 wherein a commonly used fungicide, Propiconazole was employed in tests in the amount of 50:200 PPM (parts per million) employed with and without buffered amine oxides systems 3 and 4 with some of the tests employing the 12 carbon length and others, the 1218 carbon mixture. In a preferred embodiment in 1218 on a weight basis, the 12 carbon length will be present in an amount of about 1.3 to 2.0 times the amount of 18 carbon length and in the preferred range about 1.5 to 1.8 times the amount of 18 carbon length. The tests were performed on white oak seedlings which were provided with a stem wound in which was introduced staining fungi which was of the ceratocystis variety.
The method of testing the materials was to spray the trunk of the seedling with the particular solution being tested and 7 days after such application, creating a wound of approximately 2 millimeters by 10 millimeters on each seedling stem. Fourteen days after the wounding, the wounds were examined for the presence of staining fungi.

Where [3] appears, read: fungicide + Amine Oxide 12 (No Buffer) 200:1, PPM: Thiabendazole/Fludioxonil/Azoxystrobin 160, Chlorothalonil 1235, Propiconazole 102, Mancozeb 1097, Vinclozolin 122, Mefenoxam 20.
Setting [4] is: fungicide + Amine Oxide 1218 (No Buffer) 200:1, PPM: Thiabendazole/Fludioxonil/Azoxystrobin 160, Chlorothalonil 1235, Propiconazole 103, Mancozeb 1097, Vinclozolin 122, Mefenoxam 20.
Setting [5] is: fungicide + Buffer System 3 200:1, no amine oxide, PPM: Thiabendazole/Fludioxonil/Azoxystrobin 160, Chlorothalonil 1235, Propiconazole 101, Mancozeb 1097, Vinclozolin 122, Mefenoxam 20.
Where [6] appears, read: fungicide + buffered amine oxide, Buffer System 3, amine oxide 12, 200:1, PPM: Thiabendazole/Fludioxonil/Azoxystrobin 160, Chlorothalonil 1235, Propiconazole 105, Mancozeb 1097, Vinclozolin 122, Mefenoxam 20.
Where [7] appears, read: fungicide + buffered amine oxide, Buffer System 3, amine oxide 1218, 200:1, PPM: Thiabendazole/Fludioxonil/Azoxystrobin 160, Chlorothalonil 1235, Propiconazole 107, Mancozeb 1097, Vinclozolin 122, Mefenoxam 20.
[8] abbreviates: fungicide alone, highest amount, PPM: Thiabendazole/Fludioxonil/Azoxystrobin 640, Chlorothalonil 4940, Propiconazole 400, Mancozeb 4388, Vinclozolin 488, Mefenoxam 80.
Where [9] appears, read: fungicide alone, increased amount, PPM: Thiabendazole/Fludioxonil/Azoxystrobin 320, Chlorothalonil 2470, Propiconazole 200, Mancozeb 2194, Vinclozolin 244, Mefenoxam 40.
Setting [10] is: fungicide alone, PPM: Thiabendazole/Fludioxonil/Azoxystrobin 160, Chlorothalonil 1235, Propiconazole 100, Mancozeb 1097, Vinclozolin 122, Mefenoxam 20.

On to `N#Cc1c(Cl)c(Cl)c(Cl)c(C#N)c1Cl` [Chlorothalonil], for which the “Percent of Staining Fungi Coverage Average (%) in Stem Wound of Red Oak Seedlings (Day 28)” value in test [1] (setting [3]) is recorded as 64%; in test [1] (setting [4]), 55%; in test [1] (setting [5]) it was 72%; in test [1] (setting [6]), 27%; in test [1] (setting [7]), 33%; in test [1] (setting [8]) it was 37%. Moreover, the “Percent of Staining Fungi Coverage Average (%) in Stem Wound of Red Oak Seedlings (Day 28)” value was determined as 49% in test [1] (setting [9]) and 91% in test [1] (setting [10]).
`COCC(=O)N(c1c(C)cccc1C)[C@H](C)C(=O)OC` [Mefenoxam]: the “Percent of Staining Fungi Coverage Average (%) in Stem Wound of Red Oak Seedlings (Day 28)” value in test [1] (setting [3]) turned out to be 38%; in test [1] (setting [4]), 25%; in test [1] (setting [5]), 52%; in test [1] (setting [6]), 16%; in test [1] (setting [7]), 21%; in test [1] (setting [8]), 23%. For the same compound, the results for the “Percent of Staining Fungi Coverage Average (%) in Stem Wound of Red Oak Seedlings (Day 28)” value in test [1] (setting [9]) and in test [1] (setting [10]) were 42% and 64%, respectively.
For the compound `CCCC1COC(Cn2cncn2)(c2ccc(Cl)cc2Cl)O1` (stereo not drawn) [Propiconazole], the “Percent of Staining Fungi Coverage Average (%) in Stem Wound of Red Oak Seedlings (Day 28)” value is on record as 43% in test [1] (setting [3]); 55% in test [1] (setting [4]); 74% in test [1] (setting [5]); 20% in test [1] (setting [6]); 44% in test [1] (setting [7]); 33% in test [1] (setting [8]). Besides, the “Percent of Staining Fungi Coverage Average (%) in Stem Wound of Red Oak Seedlings (Day 28)” value in test [1] (setting [9]) came out at 81%; in test [1] (setting [10]) it was 85%. The “Percent of Seedlings with Staining Fungi in Stem Wound of White Oak” value in test [2] (Propiconazole 50 PPM + buffered amine oxide system 3, amine oxide 12, 200:1) was determined as 0%; in test [2] (Propiconazole 50 PPM + buffered amine oxide system 3, amine oxide 12, 400:1) it was 20%; in test [2] (Propiconazole 50 PPM + buffered amine oxide system 3, amine oxide 1218, 200:1) it was 0%; in test [2] (Propiconazole 50 PPM + buffered amine oxide system 3, amine oxide 1218, 400:1), 0%; in test [2] (Propiconazole 50 PPM + buffered amine oxide system 4, amine oxide 12, 200:1), 0%; in test [2] (Propiconazole 50 PPM + buffered amine oxide system 4, amine oxide 12, 400:1), 20%. The “Percent of Seedlings with Staining Fungi in Stem Wound of White Oak” value is listed as 0% in test [2] (Propiconazole 50 PPM + buffered amine oxide system 4, amine oxide 1218, 200:1); 0% in test [2] (Propiconazole 50 PPM + buffered amine oxide system 4, amine oxide 1218, 400:1); 100% in test [2] (Propiconazole 50 PPM alone, 14 days after wounding); 80% in test [2] (Propiconazole 100 PPM alone, 14 days after wounding); 20% in test [2] (Propiconazole 200 PPM alone, 14 days after wounding).
For the compound `C=CC1(C)OC(=O)N(c2cc(Cl)cc(Cl)c2)C1=O` (stereo not drawn) [Vinclozolin], the “Percent of Staining Fungi Coverage Average (%) in Stem Wound of Red Oak Seedlings (Day 28)” value in test [1] (setting [3]) turned out to be 32%; in test [1] (setting [4]) it was 16%; in test [1] (setting [5]), 49%; in test [1] (setting [6]) it was 17%; in test [1] (setting [7]) it was 38%; in test [1] (setting [8]), 15%. Also, the entries for the “Percent of Staining Fungi Coverage Average (%) in Stem Wound of Red Oak Seedlings (Day 28)” value in test [1] (setting [9]) and in test [1] (setting [10]) were 21% and 43%, respectively.
On to Mancozeb, for which the “Percent of Staining Fungi Coverage Average (%) in Stem Wound of Red Oak Seedlings (Day 28)” value in test [1] (setting [3]) is on record as 58%; in test [1] (setting [4]), 30%; in test [1] (setting [5]), 67%; in test [1] (setting [6]), 24%; in test [1] (setting [7]), 30%; in test [1] (setting [8]), 22%. In addition, the “Percent of Staining Fungi Coverage Average (%) in Stem Wound of Red Oak Seedlings (Day 28)” value in test [1] (setting [9]) was found to be 35%; in test [1] (setting [10]), 74%.
